Source: patent publication US20230374034A1, “NOVEL BICYCLIC COMPOUNDS” (PRISM BIOLAB CO., LTD., priority 2020, published 2023)

System: NICD (Notch intracellular domain) CSL-bla reporter in HeLa cells
Experiment: Notch assay (CellSensor T-REx NICD CSL-bla HeLa beta-lactamase reporter; Method 1 / Method 2)
Format: cell-based
Details: Homo sapiens, 10 μM compound, Method 1 (10× compound prepared in assay medium, added to plated cells), read-out: inhibiton (%) at 10 μM
Description: We used the CellSensor T-REx™ NICD CSL-bla HeLa cell line, which was engineered by lentiviral transduction of HeLa cells with a Notch response element driving beta-lactamase reporter gene expression (CSL-bla) along with DOX (doxycycline)-inducible NICD (Notch intracellular domain) constructs. Addition of DOX to these cells allows for regulated NICD transcription factor expression and subsequent beta-lactamase expression.
Specifically, the following protocol was used.
NOTCH ASSAY PROTOCOL (Method 2)
• 1. Add 40 nL/well of working concentration of 1000× compound to 384-well assay plate with Echo. • 2. Plate Cells: 35 μl/well of HeLa/T-REx™ NICD CSL-bla cells at 10^3 cells/well complete medium into 384-well plate. • 3. Add 5 μl 8× Doxycycline in Assay Medium to the treated wells, and 5 μl Assay Medium to the Untreated and cell free control wells. • 4. Incubate the assay plate in a humidified 37° C./5% CO2 incubator for 16-20 hours. • 5. Preparation of 6× LiveBLAzer™-FRET B/G Substrate (CCF4-AM) Mixture according to the manual and cell loading should be done in the absence of direct strong lighting. • 6. Remove assay plate from the humidified 37° C./5% CO2 incubator. Add 8 μl of 6× Substrate Mixture from Step 5 to each well. Cover the plate to protect it from light and evaporation. Incubate at room temperature for 4 hours. • 7. Reading an Assay Plate using the following filter selections:
• 8. Data analysis: Use the assay plate layout to identify the location of the Cell-free wells. These control wells are used for background subtraction. Determine the average emission from the Cell-free wells at both 460 nm (Average Blue Background) and 530 nm(Average Green Background). Subtract the Average Blue Background (data collected at 460 nm) from all of the blue emission data. Subtract the Average Green background (data collected at 530 nm) from all of the green emission data. Calculate the Blue/Green Emission Ratio for each well, by dividing the background-subtracted blue emission values by the background-subtracted green emission values.
Instead of Step 1 to Step 3, the following Step a to Step d can also be performed. The subsequent steps are the same as Method 2, after Step 4 (Method 1). • a. Plate Cells: 32 μL/well of HeLa/T-REx™ NICD CSL-bla cells at 10^3 cells/well complete medium into 384-well plate. • b. Prepare 10× compounds in assay medium. • c. Add 4 μL compounds or 1% DMSO in assay medium to the cells. • d. Add 4 μL 10×Doxycycline in Assay Medium to the treated wells, and 4 μL Assay Medium to the Untreated and cell free control wells.
The results are shown in Table 13 (Table 13-1 to Table 13-2).

Compound | inhibition at 10 µM [%]
CC(C)C[C@@H]1ON(C(=O)OCc2cccc3ccccc23)C2CN(C(C)C)C(=O)[C@H](Cc3ccc(O)cc3)N2C1=O (stereo partly drawn) [Compound I-24, (3S,6S)-naphthalen-1-ylmethyl 6-(4-hydroxybenzyl)-3-isobutyl-8-isopropyl-4,7-dioxohexahydropyrazino[2,1-c][1,2,4]oxadiazine-1(6H)-carboxylate] | 68.1
CCCC[C@H]1ON(C(=O)OCc2cccc3ccccc23)C2CN(CC3CCCCC3)C(=O)[C@H](Cc3ccc(O)cc3)N2C1=O (stereo partly drawn) [Compound I-10, (3R,6S)-naphthalen-1-ylmethyl 3-butyl-8-(cyclohexylmethyl)-6-(4-hydroxybenzyl)-4,7-dioxohexahydropyrazino[2,1-c][1,2,4]oxadiazine-1(6H)-carboxylate] | 57.2
CCCCCCOC(=O)N1O[C@@H](CCCC)C(=O)N2C1CN(Cc1ccccc1)C(=O)[C@@H]2Cc1ccc(O)cc1 (stereo partly drawn) [Compound I-4, (3S,6S)-hexyl 8-benzyl-3-butyl-6-(4-hydroxybenzyl)-4,7-dioxohexahydropyrazino[2,1-c][1,2,4]oxadiazine-1(6H)-carboxylate] | 57.1
CC(C)[C@@H]1ON(C(=O)OCc2cccc3ccccc23)C2CN(C(C)C)C(=O)[C@H](Cc3ccc(O)cc3)N2C1=O (stereo partly drawn) [Compound I-22, (3S,6S)-naphthalen-1-ylmethyl 6-(4-hydroxybenzyl)-3,8-diisopropyl-4,7-dioxohexahydropyrazino[2,1-c][1,2,4]oxadiazine-1(6H)-carboxylate] | 72.8
CCCC[C@H]1C(=O)N(CCC(C)C)CC2N(C(=O)OCc3cccc4ccccc34)O[C@H](CC(N)=O)C(=O)N21 (stereo partly drawn) [Compound I-20, (3R,6S)-naphthalen-1-ylmethyl 3-(2-amino-2-oxoethyl)-6-butyl-8-isopentyl-4,7-dioxohexahydropyrazino[2,1-c][1,2,4]oxadiazine-1(6H)-carboxylate] | 66.1
CC(C)COC(=O)N1O[C@H](C(C)C)C(=O)N2C1CN(Cc1cccc3ccccc13)C(=O)[C@@H]2Cc1ccc(O)cc1 (stereo partly drawn) [Compound I-1, (3R,6S)-isobutyl 6-(4-hydroxybenzyl)-3-isopropyl-8-(naphthalen-1-ylmethyl)-4,7-dioxohexahydropyrazino[2,1-c][1,2,4]oxadiazine-1(6H)-carboxylate] | 55.9

Same assay, conditions: Homo sapiens, 10 μM compound, Method 2 (40 nL of 1000× compound added to plate with Echo), read-out: inhibiton (%) at 10 μM

Compound | inhibition at 10 µM [%]
Cc1ccc(S(=O)(=O)N2CCC(CCCN3O[C@H](CC(C)C)C(=O)N4C3CN(C3CCN(C)CC3)C(=O)[C@@H]4CC(C)C)CC2)cc1 (stereo partly drawn) [Compound I-149, (3R,6S)-3,6-diisobutyl-8-(1-methylpiperidin-4-yl)-1-(3-(1-tosylpiperidin-4-yl)propyl)tetrahydropyrazino [2,1-c][1,2,4]oxadiazine-4,7(3H,6H)-dione] | 114
CCCC[C@@H](C(=O)NCCCC(C)C)N1CC2N(C(=O)OCCc3ccc(O)cc3)O[C@H](Cc3ccccc3)C(=O)N2[C@@H](C)C1=O (stereo partly drawn) [Compound I-122, 4-hydroxyphenethyl (3R,6S)-3-benzyl-6-methyl-8-((S)-1-((4-methylpentyl)amino)-1-oxohexan-2-yl)-4,7-dioxohexahydropyrazino [2,1-c][1,2,4]oxadiazine-1(6H)-carboxylate] | 79.9
CC(C)CCCNC(=O)[C@H](CC(C)C)N1CC2N(C(=O)OCCc3ccc(O)cc3)O[C@H](Cc3ccccc3)C(=O)N2[C@@H](Cc2ccc(O)cc2)C1=O (stereo partly drawn) [Compound I-104, 4-hydroxyphenethyl (3R,6S)-3-benzyl-6-(4-hydroxybenzyl)-8-((S)-4-methyl-1-((4-methylpentyl)amino)-1-oxopentan-2-yl)-4,7-dioxohexahydropyrazino[2,1-c][1,2,4]oxadiazine-1(6H)-carboxylate] | 70.2
CC(C)[C@H]1C(=O)N(CCc2cccc3ccccc23)CC2N(C(=O)OCc3ccccc3)O[C@H](Cc3ccc(O)cc3)C(=O)N21 (stereo partly drawn) [Compound I-44, (3R,6S)-benzyl 3-(4-hydroxybenzyl)-6-isopropyl-8-(2-(naphthalen-1-yl)ethyl)-4,7-dioxohexahydropyrazino[2,1-c][1,2,4]oxadiazine-1(6H)-carboxylate] | 63.1
CC[C@H](C)[C@H]1C(=O)N(CCc2cccc3ccccc23)CC2N(C(=O)OCCc3ccc(O)cc3)O[C@H](Cc3ccc(O)cc3)C(=O)N21 (stereo partly drawn) [Compound I-46, (3R,6S)-4-hydroxyphenethyl 6-((S)-sec-butyl)-3-(4-hydroxybenzyl)-8-(2-(naphthalen-1-yl)ethyl)-4,7-dioxohexahydropyrazino[2,1-c][1,2,4]oxadiazine-1(6H)-carboxylate] | 75.6
CCCCCN1CC2N(C(=O)OCC3CCCCC3)O[C@H](Cc3ccccc3)C(=O)N2[C@@H](CCCCN)C1=O (stereo partly drawn) [Compound I-28, (3R,6S)-cyclohexylmethyl 6-(4-aminobutyl)-3-benzyl-4,7-dioxo-8-pentylhexahydropyrazino [2,1-c][1,2,4]oxadiazine-1(6H)-carboxylate] | 99.7
C[C@H]1C(=O)N(Cc2cccc3ccccc23)CC2N(C(=O)OCC3CCCCC3)O[C@H](CCCNC(=N)N)C(=O)N21 (stereo partly drawn) [Compound I-52, (3R,6S)-cyclohexylmethyl 3-(3-guanidinopropyl)-6-methyl-8-(naphthalen-1-ylmethyl)-4,7-dioxohexahydropyrazino[2,1-c][1,2,4]oxadiazine-1(6H)-carboxylate] | 51.4
NC(=O)CC[C@H]1ON(C(=O)NCCC(c2ccccc2)c2ccccc2)C2CN(Cc3cccc4ccccc34)C(=O)[C@H](Cc3ccccc3)N2C1=O (stereo partly drawn) [Compound I-54, (3R,6S)-3-(3-amino-3-oxopropyl)-6-benzyl-N-(3,3-diphenylpropyl)-8-(naphthalen-1-ylmethyl)-4,7-dioxohexahydropyrazino[2,1-c][1,2,4]oxadiazine-1(6H)-carboxamide] | 60.4
CCCC[C@@H](C(=O)NCCCC(C)C)N1CC2N(C(=O)OCCc3ccc(O)cc3)O[C@H](CC(C)C)C(=O)N2[C@@H](Cc2ccc(O)cc2)C1=O (stereo partly drawn) [Compound I-101, 4-hydroxyphenethyl (3R,6S)-6-(4-hydroxybenzyl)-3-isobutyl-8-((S)-1-((4-methylpentyl)amino)-1-oxohexan-2-yl)-4,7-dioxohexahydropyrazino[2,1-c][1,2,4]oxadiazine-1(6H)-carboxylate] | 54.4
CC(C)CCOC(=O)N1O[C@H](Cc2ccc(O)cc2)C(=O)N2C1CN([C@@H](CC(C)C)C(=O)NCCc1ccccc1)C(=O)[C@@H]2Cc1ccc(O)cc1 (stereo partly drawn) [Compound I-114, isopentyl (3R,6S)-3,6-bis(4-hydroxybenzyl)-8-((S)-4-methyl-1-oxo-1-(phenethylamino)pentan-2-yl)-4,7-dioxohexahydropyrazino[2,1-c][1,2,4]oxadiazine-1(6H)-carboxylate] | 56.3
C[C@H]1C(=O)N(CCC(c2ccccc2)c2ccccc2)CC2N(C(=O)OCC3CCCCC3)O[C@H](CCCNC(=N)N)C(=O)N21 (stereo partly drawn) [Compound I-53, (3R,6S)-cyclohexylmethyl 8-(3,3-diphenylpropyl)-3-(3-guanidinopropyl)-6-methyl-4,7-dioxohexahydropyrazino[2,1-c][1,2,4]oxadiazine-1(6H)-carboxylate] | 53.6
CC[C@H](C)OC(=O)N1O[C@H](CC2CCCCC2)C(=O)N2C1CN(CCc1ccccc1)C(=O)[C@@H]2CCCCN (stereo partly drawn) [Compound I-38, (3R,6S)-(S)-sec-butyl 6-(4-aminobutyl)-3-(cyclohexylmethyl)-4,7-dioxo-8-phenethylhexahydropyrazino [2,1-c][1,2,4]oxadiazine-1(6H)-carboxylate] | 97.3
NCCCC[C@H]1C(=O)N(CC2CCCCC2)CC2N(C(=O)OCC3CCCCC3)O[C@H](Cc3ccccc3)C(=O)N21 (stereo partly drawn) [Compound I-29, (3R,6S)-cyclohexylmethyl 6-(4-aminobutyl)-3-benzyl-8-(cyclohexylmethyl)-4,7-dioxohexahydropyrazino[2,1-c][1,2,4]oxadiazine-1(6H)-carboxylate] | 101
CC(C)C[C@H]1ON(C(=O)OCCc2ccccc2)C2CN([C@@H](Cc3ccccc3)C(=O)NCCCc3ccccc3)C(=O)[C@H](CCC(N)=O)N2C1=O (stereo partly drawn) [Compound I-123, phenethyl (3R,6S)-6-(3-amino-3-oxopropyl)-3-isobutyl-4,7-dioxo-8-((S)-1-oxo-3-phenyl-1-((3-phenylpropyl)amino)propan-2-yl)hexahydropyrazino[2,1-c][1,2,4]oxadiazine-1(6H)-carboxylate] | 52.3
